This passage reports IC50 and melting point results from patent US20090304692A1, “TRIAZINE COMPOUNDS AS PI3 KINASE AND MTOR INHIBITORS” (Wyeth, priority 2008, published 2009).

One data set has as its target Human mTOR (FLAG-TOR) (Homo sapiens, UniProt P42345). The data set can be described thus: mTOR kinase assay (DELFIA format, purified enzyme). The format is biochemical. The settings on record: read-out: IC50 mTOR.
Data set [1] concerns human breast MDA-MB-361 tumor cell line. Briefly: In vitro cell culture growth assay (MTS), MDA-MB-361. The settings on record: Homo sapiens, MDA-MB-361, 72 h; MTS cell growth assay, three days after drug treatment; read-out: IC50 MDA-MB-361. Format: cell-based. For orientation: Formazan colour is commonly taken as a measure of viable cells.
The next data set deals with PI3K-α (Homo sapiens, UniProt P42336). The data set can be described thus: PI3K-alpha fluorescence polarization assay. The settings on record: read-out: IC50 PI3Kα. For orientation: Polarisation of emitted light reports the rotation of a fluorescent probe.
The target in a further data set is PI3K-γ (Homo sapiens, UniProt P48736). The data set can be described thus: PI3K-gamma fluorescence polarization assay. The settings on record: read-out: IC50 PI3Kγ.
Sequence of PI3K-γ (P48736 whole entry, species assumed): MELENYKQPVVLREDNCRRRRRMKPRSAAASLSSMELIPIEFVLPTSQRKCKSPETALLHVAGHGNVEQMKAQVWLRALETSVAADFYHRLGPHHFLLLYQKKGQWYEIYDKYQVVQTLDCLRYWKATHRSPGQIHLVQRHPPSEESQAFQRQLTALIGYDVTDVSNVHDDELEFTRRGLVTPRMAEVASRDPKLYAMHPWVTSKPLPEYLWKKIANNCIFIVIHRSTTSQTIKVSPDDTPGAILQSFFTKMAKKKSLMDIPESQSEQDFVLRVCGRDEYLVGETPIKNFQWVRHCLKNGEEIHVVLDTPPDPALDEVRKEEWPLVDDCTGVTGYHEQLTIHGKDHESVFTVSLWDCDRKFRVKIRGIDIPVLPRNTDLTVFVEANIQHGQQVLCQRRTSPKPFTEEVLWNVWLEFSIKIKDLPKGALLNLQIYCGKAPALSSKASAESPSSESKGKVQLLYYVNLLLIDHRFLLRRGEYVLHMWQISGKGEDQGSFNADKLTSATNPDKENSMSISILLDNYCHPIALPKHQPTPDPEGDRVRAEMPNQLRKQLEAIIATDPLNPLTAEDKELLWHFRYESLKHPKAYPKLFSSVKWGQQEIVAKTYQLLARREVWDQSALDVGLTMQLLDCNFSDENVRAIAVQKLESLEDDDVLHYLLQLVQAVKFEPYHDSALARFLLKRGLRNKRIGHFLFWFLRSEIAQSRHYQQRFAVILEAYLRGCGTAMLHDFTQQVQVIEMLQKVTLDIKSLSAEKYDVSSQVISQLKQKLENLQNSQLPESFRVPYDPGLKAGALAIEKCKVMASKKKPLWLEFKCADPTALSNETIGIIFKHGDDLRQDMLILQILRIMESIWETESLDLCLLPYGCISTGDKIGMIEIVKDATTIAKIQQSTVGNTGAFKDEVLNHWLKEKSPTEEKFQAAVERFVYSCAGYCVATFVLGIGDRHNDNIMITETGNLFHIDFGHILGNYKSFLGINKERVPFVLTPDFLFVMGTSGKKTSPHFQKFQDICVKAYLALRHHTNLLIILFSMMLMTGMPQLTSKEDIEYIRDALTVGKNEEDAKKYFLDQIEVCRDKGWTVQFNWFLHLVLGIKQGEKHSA
For data set [2], the system named is human prostate PC3-mm2 tumor cell line. Briefly: In vitro cell culture growth assay (MTS), PC3-mm2. The format is cell-based. The settings on record: Homo sapiens, PC3MM2, 72 h, MTS cell growth assay, three days after drug treatment, read-out: IC50 PC3-mm2.
The test system of data set [3] is human prostate LNCap tumor cell line. The data set can be described thus: In vitro cell culture growth assay (MTS), LNCap. The settings on record: Homo sapiens, LNCaP, 72 h, read-out: IC50 LNCap.
For the next data set, the target named is human SMG-1 (hSMG-1) (Homo sapiens, UniProt Q96Q15). The data set can be described thus: hSMG-1 kinase assay (DELFIA). The format is biochemical.
Sequence of human SMG-1 (hSMG-1) (Q96Q15 whole entry): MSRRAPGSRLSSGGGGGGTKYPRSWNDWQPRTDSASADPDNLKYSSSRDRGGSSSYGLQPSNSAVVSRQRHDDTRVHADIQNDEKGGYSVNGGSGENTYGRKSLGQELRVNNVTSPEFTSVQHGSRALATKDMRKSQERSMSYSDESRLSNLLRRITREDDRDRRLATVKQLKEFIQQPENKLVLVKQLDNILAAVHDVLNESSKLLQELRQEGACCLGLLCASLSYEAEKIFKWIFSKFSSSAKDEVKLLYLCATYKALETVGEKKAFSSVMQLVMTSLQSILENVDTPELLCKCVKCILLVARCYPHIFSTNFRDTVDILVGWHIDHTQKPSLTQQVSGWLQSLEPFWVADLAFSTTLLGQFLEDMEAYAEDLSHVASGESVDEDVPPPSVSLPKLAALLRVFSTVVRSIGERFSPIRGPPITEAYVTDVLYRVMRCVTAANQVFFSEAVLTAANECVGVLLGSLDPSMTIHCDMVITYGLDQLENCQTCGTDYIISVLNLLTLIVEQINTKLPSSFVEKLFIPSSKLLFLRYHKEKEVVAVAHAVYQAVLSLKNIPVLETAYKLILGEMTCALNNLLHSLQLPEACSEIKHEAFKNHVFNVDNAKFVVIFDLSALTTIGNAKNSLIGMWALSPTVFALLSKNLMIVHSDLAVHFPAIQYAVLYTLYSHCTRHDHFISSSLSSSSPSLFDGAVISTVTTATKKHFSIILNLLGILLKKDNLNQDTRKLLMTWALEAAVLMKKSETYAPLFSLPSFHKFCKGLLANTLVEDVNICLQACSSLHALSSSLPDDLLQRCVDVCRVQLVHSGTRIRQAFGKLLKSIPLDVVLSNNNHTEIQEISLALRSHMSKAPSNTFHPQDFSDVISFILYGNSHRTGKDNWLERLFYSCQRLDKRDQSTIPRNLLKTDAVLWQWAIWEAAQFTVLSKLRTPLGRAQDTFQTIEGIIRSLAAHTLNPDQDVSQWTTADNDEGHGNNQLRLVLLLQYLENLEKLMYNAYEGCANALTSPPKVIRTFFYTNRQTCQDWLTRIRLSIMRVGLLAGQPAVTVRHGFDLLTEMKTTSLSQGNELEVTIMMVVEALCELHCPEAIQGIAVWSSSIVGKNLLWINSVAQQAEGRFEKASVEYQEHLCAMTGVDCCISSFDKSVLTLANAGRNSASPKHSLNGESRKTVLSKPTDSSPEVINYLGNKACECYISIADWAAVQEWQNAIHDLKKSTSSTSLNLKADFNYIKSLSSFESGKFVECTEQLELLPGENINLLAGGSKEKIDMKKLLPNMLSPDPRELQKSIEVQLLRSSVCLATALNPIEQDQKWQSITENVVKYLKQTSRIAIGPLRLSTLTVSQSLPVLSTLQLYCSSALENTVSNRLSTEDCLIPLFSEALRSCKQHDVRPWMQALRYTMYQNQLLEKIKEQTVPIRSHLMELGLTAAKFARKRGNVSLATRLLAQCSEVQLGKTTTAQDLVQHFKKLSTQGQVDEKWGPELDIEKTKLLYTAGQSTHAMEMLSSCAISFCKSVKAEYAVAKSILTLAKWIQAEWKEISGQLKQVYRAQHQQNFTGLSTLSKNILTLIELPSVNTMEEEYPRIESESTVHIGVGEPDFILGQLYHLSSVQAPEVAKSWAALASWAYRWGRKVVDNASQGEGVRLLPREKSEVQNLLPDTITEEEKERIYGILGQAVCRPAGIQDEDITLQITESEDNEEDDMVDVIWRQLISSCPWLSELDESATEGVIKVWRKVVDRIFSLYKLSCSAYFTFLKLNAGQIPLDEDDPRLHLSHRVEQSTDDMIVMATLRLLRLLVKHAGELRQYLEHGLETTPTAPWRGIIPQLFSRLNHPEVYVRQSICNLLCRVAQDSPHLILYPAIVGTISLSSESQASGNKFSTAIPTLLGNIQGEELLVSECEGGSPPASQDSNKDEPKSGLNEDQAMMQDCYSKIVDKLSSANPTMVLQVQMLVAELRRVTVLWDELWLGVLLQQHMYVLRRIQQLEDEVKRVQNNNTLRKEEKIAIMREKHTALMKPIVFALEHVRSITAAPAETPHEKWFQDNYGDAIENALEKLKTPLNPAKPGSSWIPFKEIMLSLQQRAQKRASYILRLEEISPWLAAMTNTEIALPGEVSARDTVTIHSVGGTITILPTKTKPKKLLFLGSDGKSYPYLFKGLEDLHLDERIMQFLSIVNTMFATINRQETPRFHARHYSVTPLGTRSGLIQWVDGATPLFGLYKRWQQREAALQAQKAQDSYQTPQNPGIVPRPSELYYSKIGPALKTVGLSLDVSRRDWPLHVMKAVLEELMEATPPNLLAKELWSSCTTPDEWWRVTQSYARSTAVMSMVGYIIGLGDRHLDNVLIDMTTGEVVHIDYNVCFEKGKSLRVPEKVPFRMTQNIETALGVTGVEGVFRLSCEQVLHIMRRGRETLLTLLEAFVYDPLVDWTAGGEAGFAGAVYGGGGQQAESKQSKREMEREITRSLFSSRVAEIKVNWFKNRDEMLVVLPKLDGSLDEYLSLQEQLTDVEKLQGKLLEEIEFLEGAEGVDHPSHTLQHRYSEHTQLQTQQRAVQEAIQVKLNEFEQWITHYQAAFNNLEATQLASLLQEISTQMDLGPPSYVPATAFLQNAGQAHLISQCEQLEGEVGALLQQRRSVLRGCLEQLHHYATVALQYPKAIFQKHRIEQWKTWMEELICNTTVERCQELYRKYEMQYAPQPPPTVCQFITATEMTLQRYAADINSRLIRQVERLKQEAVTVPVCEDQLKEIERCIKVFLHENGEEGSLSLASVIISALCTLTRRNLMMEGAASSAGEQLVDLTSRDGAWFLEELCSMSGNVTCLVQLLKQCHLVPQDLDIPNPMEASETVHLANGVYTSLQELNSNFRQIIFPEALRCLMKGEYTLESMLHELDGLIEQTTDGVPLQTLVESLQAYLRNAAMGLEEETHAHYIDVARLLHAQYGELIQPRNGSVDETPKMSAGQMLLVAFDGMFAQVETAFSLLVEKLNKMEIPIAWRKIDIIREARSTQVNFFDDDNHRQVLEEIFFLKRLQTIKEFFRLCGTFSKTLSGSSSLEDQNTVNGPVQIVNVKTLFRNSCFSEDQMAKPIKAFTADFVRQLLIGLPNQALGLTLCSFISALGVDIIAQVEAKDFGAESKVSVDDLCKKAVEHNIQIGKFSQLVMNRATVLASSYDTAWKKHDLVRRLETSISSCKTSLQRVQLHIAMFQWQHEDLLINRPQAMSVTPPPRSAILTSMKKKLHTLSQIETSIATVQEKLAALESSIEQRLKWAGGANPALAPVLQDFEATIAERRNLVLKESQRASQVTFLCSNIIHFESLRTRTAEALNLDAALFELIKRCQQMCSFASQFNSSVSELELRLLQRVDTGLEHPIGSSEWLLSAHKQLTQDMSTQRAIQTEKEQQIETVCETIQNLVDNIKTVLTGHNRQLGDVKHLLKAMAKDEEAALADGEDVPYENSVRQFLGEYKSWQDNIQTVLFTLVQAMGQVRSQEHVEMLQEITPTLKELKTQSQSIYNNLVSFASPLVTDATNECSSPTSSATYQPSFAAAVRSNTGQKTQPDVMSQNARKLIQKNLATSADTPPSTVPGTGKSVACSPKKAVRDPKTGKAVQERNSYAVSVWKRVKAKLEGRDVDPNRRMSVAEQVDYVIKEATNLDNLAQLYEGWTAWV

Molecules are shown by their SMILES. Several values for one entry are separate records, joined by “and”; a condition that tells them apart may be missing. Equal entries are not always repeated. Where two headings read alike, the source gives them in different places.

By IC50 is commonly meant the concentration at which inhibition is half-maximal. In general, melting point refers to the temperature of the solid-liquid transition.

On to `O=C(Nc1ccncc1)Nc1ccc(-c2nc(C3CCOCC3)nc(N3CCOCC3)n2)cc1` [Example 101, 1-{4-[4-Morpholin-4-yl-6-(tetrahydro-pyran-4-yl)-[1,3,5]triazin-2-yl]-phenyl}-3-pyridin-4-yl-urea], for which the IC50 on Human mTOR (FLAG-TOR) worked out at 0.44 nM; in data set [1], 32.7 nM; at PI3K-α, 6 nM; on PI3K-γ, 33 nM; in data set [2], 37.3 nM; in data set [3] it was 3 nM.
Molecule `COC(=O)c1ccc(NC(=O)Nc2ccc(-c3nc(N4CCC4)nc(N4CCOCC4)n3)cc2)cc1` [Example 141, methyl 4-({[4-(4-azetidin-1-yl-6-morpholin-4-yl-1,3,5-triazin-2-yl)phenyl]carbamoyl}amino)benzoate] had a melting point of 212 °C. Moreover, the IC50 at Human mTOR (FLAG-TOR) stood at 26 nM. Also, the IC50 at PI3K-α worked out at 241 nM. Besides, the IC50 on PI3K-γ worked out at 3380 nM.
In the same order, the values of `O=C(Nc1ccc(C(=O)O)cc1)Nc1ccc(-c2nc(N3CCC3)nc(N3CCOCC3)n2)cc1` [Example 195, 4-({[4-(4-azetidin-1-yl-6-morpholin-4-yl-1,3,5-triazin-2-yl)phenyl]carbamoyl}amino) benzoic acid] are 204 °C, 21 nM, 115 nM and 498 nM.
In the same order, the values of `CC(C)(C)OC(=O)N1C[C@H]2C[C@@H]1CN2c1nc(-c2ccc(NC(=O)Nc3ccncc3)cc2)nc(N2CCOCC2)n1` [Example 256, tert-butyl(1R,4R)-5-(4-morpholin-4-yl-6-{4-[(pyridin-4-ylcarbamoyl)amino]phenyl}-1,3,5-triazin-2-yl)-2,5-diazabicyclo[2.2.1]heptane-2-carboxylate] are 192 °C, 32 nM, 68 nM and 182 nM.
With `O=C(Nc1ccncc1)Nc1ccc(-c2nc(N3CCOCC3)nc(N3C(CO)CCC3CO)n2)cc1` (stereo not shown) [Example 268, 1-(4-{4-[2,5-bis(hydroxymethyl)pyrrolidin-1-yl]-6-morpholin-4-yl-1,3,5-triazin-2-yl}phenyl)-3-pyridin-4-ylurea], the IC50 is 0.39 nM and 0.38 nM at Human mTOR (FLAG-TOR); 59 nM in data set [1]; 12 nM on PI3K-α; 10.5 nM on PI3K-α (listed as 728); 41 nM at PI3K-γ; 47 nM at PI3K-γ (listed as 728). In addition, the figures for the IC50 in data set [2] (PC3-mm2 cells), in data set [2] and in data set [3] were 107 nM, 107 nM and 38 nM, respectively.
`CNC(=O)Nc1ccc(-c2nc(-c3ccc(NC(=O)Nc4cccnc4)cc3)nc(N3C(C)COCC3C)n2)cc1` (stereo not shown) [Example 463, 1-{4-[4-(3,5-dimethylmorpholin-4-yl)-6-{4-[(methylcarbamoyl)amino]phenyl}-1,3,5-triazin-2-yl]phenyl}-3-pyridin-3-ylurea]: the values for the IC50 at Human mTOR (FLAG-TOR) and on human SMG-1 (hSMG-1) were 17 nM and 510 nM, respectively.
In the same order, the values of `CNC(=O)Nc1ccc(-c2nc(-c3ccc(NC(=O)Nc4ccc(C(N)=O)cc4)cc3)nc(N3CC4CCC(C3)O4)n2)cc1` [Example 464, 4-[({4-[4-{4-[(methylcarbamoyl)amino]phenyl}-6-(8-oxa-3-azabicyclo[3.2.1]oct-3-yl)-1,3,5-triazin-2-yl]phenyl}carbamoyl)amino]benzamide] are 1 nM and 3 nM.
In the same order, the values of `CNC(=O)Nc1ccc(-c2nc(-c3ccc(NC(=O)Nc4cccc(C(N)=O)c4)cc3)nc(N3CC4CCC(C3)O4)n2)cc1` [Example 465, 3-[({4-[4-{4-[(methylcarbamoyl)amino]phenyl}-6-(8-oxa-3-azabicyclo[3.2.1]oct-3-yl)-1,3,5-triazin-2-yl]phenyl}carbamoyl)amino]benzamide] are 1 nM and 5 nM.
Regarding `CNC(=O)Nc1ccc(-c2nc(-c3ccc(NC(=O)Nc4cccc(C(N)=O)c4)cc3)nc(N3C(C)COCC3C)n2)cc1` (stereo not shown) [Example 469, 3-[({4-[4-(3,5-dimethylmorpholin-4-yl)-6-{4-[(methylcarbamoyl)amino]phenyl}-1,3,5-triazin-2-yl]phenyl}carbamoyl)amino]benzamide], the IC50 came to 23 nM on Human mTOR (FLAG-TOR), 130 nM against human SMG-1 (hSMG-1) and 2800 nM in data set [3].
On to `CNC(=O)Nc1ccc(-c2nc(-c3ccc(NC(=O)Nc4ccc(C(N)=O)cc4)cc3)nc(N3C(C)COCC3C)n2)cc1` (stereo not shown) [Example 470, 4-[({4-[4-(3,5-dimethylmorpholin-4-yl)-6-{4-[(methylcarbamoyl)amino]phenyl}-1,3,5-triazin-2-yl]phenyl}carbamoyl)amino]benzamide], for which the IC50 came to 7 nM at Human mTOR (FLAG-TOR), 195 nM against human SMG-1 (hSMG-1) and 1000 nM in data set [3].
As to `CNC(=O)Nc1ccc(-c2nc(-c3ccc(NC(=O)Nc4ccncc4)cc3)nc(N3CC4CCC(C3)O4)n2)cc1` [Example 471, 1-methyl-3-{4-[4-(8-oxa-3-azabicyclo[3.2.1]oct-3-yl)-6-{4-[(pyridin-4-ylcarbamoyl)amino]phenyl}-1,3,5-triazin-2-yl]phenyl}urea], the IC50 turned out to be 5 nM against human SMG-1 (hSMG-1) and 130 nM in data set [3].
`CNC(=O)Nc1ccc(-c2nc(-c3ccc(NC(=O)Nc4ccncc4)cc3)nc(N3C(C)COCC3C)n2)cc1` (stereo not shown) [Example 472, 1-{4-[4-(3,5-dimethylmorpholin-4-yl)-6-{4-[(methylcarbamoyl)amino]phenyl}-1,3,5-triazin-2-yl]phenyl}-3-pyridin-4-ylurea]: the IC50 at Human mTOR (FLAG-TOR) was determined as 35 nM; against human SMG-1 (hSMG-1) it was 200 nM; in data set [3], 3800 nM.
For `O=C(Nc1ccc(-c2nc(N3CCOCC3)nc(N3CCOCC3)n2)cc1)C(F)F` [Example 473, N-[4-(4,6-dimorpholin-4-yl-1,3,5-triazin-2-yl)phenyl]-2,2-difluoroacetamide], the IC50 at Human mTOR (FLAG-TOR) turned out to be 35 nM; at human SMG-1 (hSMG-1), 3650 nM.
In the same order, the values of `c1cc(-c2nc(N3CCOCC3)nc(N3CCOCC3)n2)ccc1NC1=NCCN1` [Example 474, N-[4-(4,6-dimorpholin-4-yl-1,3,5-triazin-2-yl)phenyl]-4,5-dihydro-1H-imidazol-2-amine] are 48 nM and 5650 nM.
In the same order, the values of `c1cc(-c2nc(N3CCOCC3)nc(N3CCOCC3)n2)ccc1-c1nn[nH]n1` [Example 475, 2,4-dimorpholin-4-yl-6-[4-(2H-tetrazol-5-yl)phenyl]-1,3,5-triazine] are 18500 nM and more than 20000 nM.
In the same order, the values of `CNC(=O)Nc1ccc(-c2nc(N3CCOCC3)nc(N3CCOCC3)n2)cc1` [Example 476, 1-[4-(4,6-dimorpholin-4-yl-1,3,5-triazin-2-yl)phenyl]-3-methylurea] are 5 nM and 19 nM.
As for `O=C(Cc1ccc(-c2nc(N3CCOCC3)nc(N3CCOCC3)n2)cc1)Nc1cccnc1` [Example 477, 2-[4-(4,6-dimorpholin-4-yl-1,3,5-triazin-2-yl)phenyl]-N-pyridin-3-ylacetamide], the half-maximal inhibitory concentration (IC50) at Human mTOR (FLAG-TOR) came out at 14000 nM; on human SMG-1 (hSMG-1) it was 9250 nM.
`CC(C)c1nc(-c2ccc(NC(=O)Nc3ccc(-c4ccncc4)cc3)cc2)nc(N2CCOCC2)n1` [Example 489, 1-{4-[4-(1-methylethyl)-6-morpholin-4-yl-1,3,5-triazin-2-yl]phenyl}-3-(4-pyridin-4-ylphenyl)urea]: the IC50 at Human mTOR (FLAG-TOR) was 2.2 nM; at PI3K-α it was 3670 nM; on PI3K-γ, 9040 nM; in data set [3], 4300 nM.
`CN1CCN(CC(=O)Nc2ccc(NC(=O)Nc3ccc(-c4nc(N5CC6CCC(C5)O6)nc(N5CC6CCC(C5)O6)n4)cc3)cc2)CC1` [Example 509, N-[4-({[4-(4,6-di-8-oxa-3-azabicyclo[3.2.1]oct-3-yl-1,3,5-triazin-2-yl)phenyl]carbamoyl}amino)phenyl]-2-(4-methylpiperazin-1-yl)acetamide]: the IC50 on Human mTOR (FLAG-TOR) is 0.45 nM; at PI3K-α, 11.5 nM; at PI3K-γ, 662 nM; in data set [3], less than 0.8 nM.
For the molecule `O=C(Nc1ccncc1)Nc1ccc(-c2nc(N3CC4CCC(C3)O4)nc(N3[C@H](CO)CC[C@@H]3CO)n2)cc1` [Example 667, 1-(4-{4-[(2R,5S)-2,5-bis(hydroxymethyl)pyrrolidin-1-yl]-6-(8-oxa-3-azabicyclo[3.2.1]oct-3-yl)-1,3,5-triazin-2-yl}phenyl)-3-pyridin-4-ylurea], the IC50 at Human mTOR (FLAG-TOR) is 0.405 nM; at PI3K-α it was 102 nM; on PI3K-γ, 1080 nM; in data set [3] it was 60 nM.
Regarding `CN1CCN(c2ccc(NC(=O)Nc3ccc(-c4nc(N5CC6CCC(C5)O6)nc(N5[C@H](CO)CC[C@@H]5CO)n4)cc3)cc2)CC1` [Example 668, 1-(4-{4-[(2R,5S)-2,5-bis(hydroxymethyl)pyrrolidin-1-yl]-6-(8-oxa-3-azabicyclo[3.2.1]oct-3-yl)-1,3,5-triazin-2-yl}phenyl)-3-[4-(4-methylpiperazin-1-yl)phenyl]urea], the IC50 at Human mTOR (FLAG-TOR) turned out to be 0.56 nM; on PI3K-α it was 122 nM; at PI3K-γ, 625 nM; in data set [3], 0.8 nM.
